Measured values published in US10808003B2, “Amphipathic molecule based on tandem malonate and use thereof” (Industry-University Cooperation Foundation Hanyang …, priority 2017, dated 2020).
Entries after “also recorded” stand apart in the source; their conditions may differ.

Tests used:
[1] = Critical micelle concentration by fluorescent staining with diphenylhexatriene (DPH); assay type: physicochemical; details: aqueous solution
Experimental: A method of measuring CMC is not particularly limited, and any method well known in the art, for example, a fluorescent staining method using diphenylhexatriene (DPH) may be used.
(§1) Specifically, a CMC was measured using fluorescent staining and diphenylhexatriene (DPH), and the hydrodynamic radii (Rh) of micelles formed by each agent (1.0 wt %) were measured by a DLS test. The measured results were compared with those for the conventional amphipathic molecule (detergent), DDM, and thus are shown in Table 1.

[2] = Hydrodynamic radius of micelles by dynamic light scattering (DLS); assay type: physicochemical; details: micelles formed by each agent at 1.0 wt %
Experimental: A method of measuring the radius of the micelles is not particularly limited, and any method well known in the art, for example, a DLS test may be used.
as §1

[3] = test system: T1, light harvesting complex I and reaction center (LHI-RC) complex; test: Stability of LHI-RC complex in amphipathic molecule, UV-visible spectrum over 20 days; assay type: biochemical, Rhodobacter capsulatus; details: CMC+0.04 wt % or CMC+0.2 wt %, 20 days at room temperature, FIGS. 7 and 8
T1 construct: His tag (only implied by the Ni-NTA / His-SpinTrap purification); made in house
Experimental: The super-assembly of R. capsulatus expressed in manipulated R. capsulatus strains was solubilized and purified according to a protocol disclosed in previous literature (P. S. Chae, Analyst, 2015, 140, 3157-3163.). A 10 mL aliquot of a frozen membrane was thawed, and homogenized using a glass tissue homogenizer at room temperature. The homogenate was incubated for 30 minutes at 32° C. under gentle agitation. After addition of 1.0 wt % DDM, the homogenate was further incubated for 30 minutes at 32° C. Following ultracentrifugation, a supernatant containing a solubilized light harvesting complex I and reaction center (LHI-RC) complex was collected, and incubated with an Ni^2+-NTA resin for 1 hour at 4° C. The resin was added to each 10 His-SpinTrap column, and then the resulting product was washed with 500 μL of a coupling buffer (10 mM Tris (pH 7.8), […], 1×CMC DDM) twice. The LHI-RC complex purified by DDM was eluted from the column using a buffer containing 1.0 M imidazole (2×300 μL). […] Protein stability was measured at regular intervals while a protein-amphipathic molecule sample was incubated by measuring the UV-visible spectrum of a specimen in a range of 650 to 950 nm.

[4] = test system: LeuT (leucine transporter); test: LeuT stability by [3H]-Leu substrate binding, scintillation proximity assay (SPA); assay type: biochemical, Aquifex aeolicus
Experimental: An experiment of measuring LeuT protein stability for TMGs and TMMs was performed. (a) CMC+0.04 wt % or (b) CMC+0.2 wt % of each amphipathic molecule was used, and the evaluation of the LeuT protein stability was performed by taking an advantage of a characteristic of LeuT binding to a substrate through a scintillation proximity assay (SPA) using [^3H]-Leu. […]
Specifically, wild type LeuT (leucine transporter) derived from a thermophilic bacterium, Aquifex aeolicus, was purified by a previously-disclosed method (G. Deckert et al., Nature 1998, 392, 353-358). LeuT was expressed in E. coli C41 (DE3) transformed with pET16b encoding a C-terminus 8×His-tagged transporter (the expression plasmid was provided by Dr E. Gouaux, Vollum Institute, Portland, Oreg., USA). In summary, following isolation of a bacterial membrane and lysis with 1% (w/v) DDM, the protein was allowed to bind to a Ni^2+-NTA resin (Life Technologies, Denmark), and eluted in 20 mM Tris-HCl (pH 8.0), 1 mM NaCl, 199 mM KCl, 0.05% (w/v) DDM and 300 mM imidazole. Afterward, the purified LeuT (approximately 1.5 mg/ml) was diluted with the same buffer used above, from which DDM and imidazole were removed, and then supplemented with TMGs or DDM at the final concentration of CMC+0.04% (w/v). […] SPA was performed using a buffer containing 450 mM NaCl and each of the TMGs and TMMs at the predetermined concentration. The SPA reaction is performed in the presence of 20 nM [^3H]-Leucine and 1.25 mg/ml copper chelate (His-Tag) YSi beads (Perkin Elmer, Denmark). A total [^3H]-Leucine binding degree of each sample was measured using a MicroBeta liquid scintillation counter (Perkin Elmer).

[5] = biological target: T2, melibiose permease (MelBSt) (Salmonella typhimurium, UniProt P30878); test: MelBSt extraction and solubility at four temperatures, SDS-PAGE and western blotting; assay type: biochemical; details: 1.5 wt %, 90 minutes
T2 construct: made in house; host or cells: E. coli DW2 cells (melB and lacZY), plasmid pK95AHB/WT MelBSt/CH10
Experimental: An experiment was performed to measure structural stability of Salmonella typhimurium melibiose permease (MelBSt) protein by TMGs. The MelBSt protein was extracted from a membrane using TMGs or DDM, and then an amount of the extracted protein and its structure were analyzed by SDS-PAGE and western blotting. A concentration of the amphipathic molecule used was 1.5 wt %, and two types of performance such as protein extraction efficiency and stabilization ability of the compound were simultaneously evaluated by extracting the protein at four temperatures (0, 45, 55, and 65° C.), incubating the protein for 90 minutes at the same temperatures, and measuring an amount of the protein remaining dissolved in an aqueous solution. The amount of the protein extracted and stabilized by each amphipathic molecule was expressed as a relative value (%) with respect to a total amount of the protein contained in a membrane sample not treated with an amphipathic molecule.
Specifically, Salmonella typhimurium MelBSt (melibiose permease) having a 10-His tag at the C-terminus was expressed in E. coli DW2 cells (melB and lacZY) using plasmid pK95AHB/WT MelBSt/CH10. According to the method disclosed in the article written by A. S. Ethayathulla et al. (Nat. Commun. 2014, 5, 2009), cell growth and membrane preparation were performed. A protein assay was performed using a Micro BCA kit (Thermo Scientific, Rockford, Ill.). Using the protocol disclosed in Nat. Methods 2010, 7, 1003-1008 written by P. S. Chae et al., DDM or TMGs were evaluated for MelBSt stability. A MelBSt-containing membrane sample (the final protein concentration was 10 mg/mL) was incubated at four temperatures (0, 45, 55 and 65° C.) for 90 minutes in a 1.5% (w/v) DDM or TMG-containing solubilization buffer (20 mM sodium phosphate, pH 7.5, 200 mM NaCl, 10% glycerol, 20 mM melibiose). To remove insoluble material, ultracentrifugation was performed using a Beckman Optima™ MAX ultracentrifuge equipped with a TLA-100 rotor at 355,590 g at 4° C. for 45 minutes, and then 20 μg of each protein sample was separated using SDS-15% PAGE, followed by immunoblotting using a Penta-His-HRP antibody (Qiagen, Germantown, Md.). MelBSt was measured by an ImageQuant LAS 4000 biomolecular imager (GE Health Care Life Sciences) using a SuperSignal West Pico chemiluminescent substrate.

Row | SMILES | CMC [1] [mM] | CMC (wt %) [1] [wt %] | Rh (nm), hydrodynamic radius of micelles [2] [nm] | stability of the LHI-RC complex [3] | activity of LeuT over time ([4]; TMMs or DDM at CMC+0.04 wt %, incubation at room temperature, FIG. 13a) | amount of MelBSt solubilized / extraction efficiency ([5]; 0° C.) | MelBSt remaining solubilized ([5]; 55° C.) [%] | MelBSt protein dissolved in aqueous solution ([5]; 65° C.) | substrate-binding ability of LeuT ([4]; TMGs or DDM at CMC+0.04 wt %, 10 days at room temperature) | amount of MelBSt solubilized / extraction efficiency ([5]; 45° C.) | amount of MelBSt solubilized / extraction efficiency ([5]; 55° C.)
1 | CCCCCCCCCCCCO[C@@H]1O[C@H](CO)[C@@H](O[C@H]2O[C@H](CO)[C@@H](O)[C@H](O)[C@H]2O)[C@H](O)[C@H]1O [DDM, n-dodecyl-β-D-maltopyranoside, reference compound] | ~0.17 | ~0.0087 | 3.4 ± 0.03 | significantly reduced complex stabilization as the concentration increased from CMC+0.04 wt % to CMC+0.2 wt % | gradually reduced over time | slightly more excellent protein extraction efficiency than TMGs | 10 | not detected | – | – | –
2 | CCCCCCCCCCCCC(CCCC(CCCCCCCCCCCC)(CO[C@@H]1OC(CO)[C@@H](O)C(O)C1O)CO[C@@H]1OC(CO)[C@@H](O)C(O)C1O)(CO[C@@H]1OC(CO)[C@@H](O)C(O)C1O)CO[C@@H]1OC(CO)[C@@H](O)C(O)C1O (some centres unmarked) [TMG-A12] | ~0.010 | ~0.0012 | 3.3 ± 0.09 | – | – | – | – | – | substantially higher substrate-binding ability of the transporter than DDM; also recorded: well maintained for 10 days | almost all MelBSt was successfully extracted | excellent protein extraction efficiency was able to be confirmed
